Test results published in EP0537092A1, “Infracellular vesicular vectors and their application in cosmetic and medical compositions and culture media” (priority 1991, dated 1993).
Like-named read-outs stand apart in the source and are kept apart here.

Columns and labels:
Assay type in all cases: cell-based, humaine
collagène de type III = experiment: radioimmunoassay of soluble collagen type III in fibroblast culture supernatant
Experimental: (§1) Les résultats des essais présentés ci-après ont été obtenus selon la méthodologie suivante : Conditions de culture : les fibroblastes sont obtenus à partir d'explants de peau humaine. Les cellules sont maintenues en culture dans du milieu DMEM (Gibco) additionné de 10 % de sérum de veau foetal (Gibco) et d'antibiotiques (pénicilline 100 U/ml, streptomycine 100 µg/ml).
(§2) Les subcultures sont réalisées par trypsination (Trypsin-EDTA, Gibco). Les cellules sont utilisées du 2e au 10e passage.
(§3) Conditions de traitements : Les cultures de fibroblastes témoins se réferent aux cultures avec vecteurs sans principe actif, en quantité similaire aux autres traitements. Les cultures traitées avec la molécule en solution se réfèrent aux conditions de la culture témoin et de la molécule sous forme soluble.
(§4) Les cultures traitées avec la forme vectoriale de la molécule impliquent que la molécule active soit inclue préalablement dans les vecteurs.
(§5) Evaluation des collagènes solubles par dosage radioimmunologique : On prélève 100 µl de surnageant de culture et on y ajoute 100 µl d'anticorps anticollagène de type I ou anti-collagène de type III et 200 µl de PBS.

[1] = tested on: collagénase interstitielle (MMP-1); experiment: collagenase activity in the culture medium of fibroblasts; settings: for Collagénase: Temps : 48 h, factor of change (summary table)
Experimental: as §1, §2, §3, §4
Mesure de l'activité collagénasique dans le milieu de culture
On mesure la collagénase interstitielle qui dégrade les collagènes interstitiels natifs de type I-III. • a) Préparation du substrat : le collagène de type I, marqué au carbone-14, en solution dans CH3COOH 0,1 M est neutralisé à pH 7,4 par du Tris 1 M et dilué avec le tampon NaCl 0,15 M/CaCl2, 4 mM/Tris-HCl 50 mM, pH 7,4 contenant du NEM 0,5 mM et du PMSF 0,1mM à raison de […] substrat (= 10000 cpm/essai). • b) Dosage de la collagénase: 100 µl de milieu sont activés par 10 µl de trypsine (1 mg/ml) à 37°C pendant 10 mn, suivi de l'addition de 10 µl de SBTI (5 mg/ml): 10 mn à température ambiante. 100 µl de milieu sont aussi testés sans activation par la trypsine (mesure de la forme active de l'enzyme).
Le substrat (10000 cpm/essai) est ajouté, éventuellement en présence d'EDTA 25 mM, le volume final étant de 250 µl. La réaction se déroule pendant 18 h à 25°C puis est stoppée par addition de 20 µl d'EDTA 250 mM (10 mn à température ambiante).Le mélange est ensuite chauffé 10 mn à 39°C.
Le collagène non dégradé est précipité par l'éthanol à la concentration finale de 18 % (30 mn à température ambiante).
Finalement, le mélange est centrifugé à 6000 g pendant 30 mn à 4°C. Des aliquots de 200 µl des surnageants sont mélangés avec 5 ml de liquide scintillant aqueux puis comptés pour leur radioactivité.
Une unité de collagénase est définie comme la quantité d'enzyme nécessaire pour dégrader 1 µg de collagène natif par heure à 25°C.

fibroblastes [2] = settings: for prolifération des fibroblastes traités avec le Palmitate d'hydroxyproline: 10^4 cellules par puit
Experimental: as §1, §2, §3, §4
[…] Puis on ajoute le sel de tétrazolium jaune (5 mg / ml). Il est réduit par les réductases mitochondriales des cellules vivantes en un produit formazan violet qui est ensuite solubilisé par de l'HCl 0,04 N dans de l'isopropanol.
La réaction colorée est lue à une longueur d'onde de 570 nm par un Multiskan Titertek (Flow Laboratories) et exprimée en densité optique.

fibroblastes [3] = experiment: summary conclusion on modulation of fibroblast activity (Tableau 10); settings: Temps : 48 h
Excerpt: Le tableau 10 ci-après résume les résultats obtenus. TABLEAU 10
Ce tableau montre bien la capacité qu'ont les vecteurs selon l'invention à moduler l'activité des fibroblastes lorsqu'ils portent à leur surface certaines fonctions hydrophiles fixées sur ledit vecteur par un ester ou une amide d'acide gras.

collagène de type I = tested on: collagène de type I
Experimental: as §1, §2, §3, §4, §5

Q: What does the source list for `O=C(O)[C@@H]1C[C@@H](O)CN1` [Hydroxyproline libre, Hydroxyproline]?
A: fold induction at 10 µg/mL (collagène de type III; Skin fibroblast, Temps : 48 h, 10 µg/ml, factor of change (summary table), read-out: Synthèse collag. III): 2; Collagénase ([1]; 10 µg/ml): =; Cytotoxicité Test MTT (fibroblastes [2]; Temps : 48 h, 10 µg/ml): non; Prolifération (fibroblastes [2]; Temps : 48 h, 10 µg/ml, factor of change (summary table)): =; CONCLUSION à 4.10⁵cell. (fibroblastes [3]; 10 µg/ml): Stimulant sélectif du collagène I

Q: Which fold induction at 25 µg/mL (collagène de type III; Skin fibroblast, Temps : 48 h, 25 µg/ml, factor of change (summary table), read-out: Synthèse collag. III) does the source give for `CCCCCCCCCCCCCCCC(=O)OC[C@H](O)[C@H]1OC(=O)C(O)=C1O` [palmitate d'ascorbyle en solution, palmitate d'ascorbyle] here?
A: 30

Q: What about the Collagénase ([1]; 25 µg/ml) of the same compound?
A: =

Q: What about the “Cytotoxicité Test MTT” value (fibroblastes [2]; Temps : 48 h, 25 µg/ml) of the same compound?
A: non

Q: What about the “CONCLUSION à 4.10⁵cell.” value (fibroblastes [3]; 25 µg/ml) of the same compound?
A: Stimulants non sélectifs

Q: Which “synthèse de collagène type III par des fibroblastes traités avec le palmitate d'hydroxyproline” value (collagène de type III; 24 heures, 1 µg/ml) does the source give for “Palmitate d'hydroxyproline [Palmitate d'hydroxyproline Solution]” here?
A: 295 ± 24 ng/mL

Q: What about the “synthèse de collagène type III par des fibroblastes traités avec le palmitate d'hydroxyproline” value (collagène de type III; 24 heures, 5 µg/ml) of the same compound?
A: 281 ± 16 ng/mL

Q: And the “synthèse de collagène type III par des fibroblastes traités avec le palmitate d'hydroxyproline” value (collagène de type III; 48 heures, 1 µg/ml)?
A: 588 ± 69 ng/mL

Q: What about the “synthèse de collagène type III par des fibroblastes traités avec le palmitate d'hydroxyproline” value (collagène de type III; 48 heures, 5 µg/ml) of the same compound?
A: 519 ± 20 ng/mL

Q: What about the “synthèse de collagène type III par des fibroblastes traités avec le palmitate d'hydroxyproline” value (collagène de type III; 72 heures, 1 µg/ml) of the same compound?
A: 628 ± 161 ng/mL

Q: And the “synthèse de collagène type III par des fibroblastes traités avec le palmitate d'hydroxyproline” value (collagène de type III; 72 heures, 5 µg/ml)?
A: 548 ± 24 ng/mL

Q: And the “synthèse de collagène type I par des fibroblastes traités avec le palmitate d'hydroxyproline” value (collagène de type I; 24 heures, 1 µg/ml)?
A: 268 ± 18 ng/mL

Q: And the “synthèse de collagène type I par des fibroblastes traités avec le palmitate d'hydroxyproline” value (collagène de type I; 24 heures, 5 µg/ml)?
A: 232 ± 10 ng/mL

Q: And the “synthèse de collagène type I par des fibroblastes traités avec le palmitate d'hydroxyproline” value (collagène de type I; 48 heures, 1 µg/ml)?
A: 519 ± 37 ng/mL

Q: And the “synthèse de collagène type I par des fibroblastes traités avec le palmitate d'hydroxyproline” value (collagène de type I; 72 heures, 1 µg/ml)?
A: 513 ± 77 ng/mL

Q: And the “synthèse de collagène type I par des fibroblastes traités avec le palmitate d'hydroxyproline” value (collagène de type I; 72 heures, 5 µg/ml)?
A: 470 ± 5 ng/mL

Q: What about the Collagénase ([1]; 40 µg/ml) of the same compound?
A: =

Q: What about the “dose qui stimule de manière significative la synthèse de la collagénase” value ([1]; cultures de fibroblastes) of the same compound?
A: 1 µg/mL

Q: And the “prolifération des fibroblastes traités avec le Palmitate d'hydroxyproline” value (fibroblastes [2]; 24 heures, 1 µg / ml)?
A: 0,493 ± 0,029 densité optique

Q: And the “prolifération des fibroblastes traités avec le Palmitate d'hydroxyproline” value (fibroblastes [2]; 24 heures, 5 µg / ml)?
A: 0,492 ± 0,016 densité optique

Q: What about the “prolifération des fibroblastes traités avec le Palmitate d'hydroxyproline” value (fibroblastes [2]; 24 heures, 10 µg / ml) of the same compound?
A: 0,502 ± 0,019 densité optique

Q: What about the “prolifération des fibroblastes traités avec le Palmitate d'hydroxyproline” value (fibroblastes [2]; 24 heures, 20 µg / ml) of the same compound?
A: 0,457 ± 0,022 densité optique

Q: And the “prolifération des fibroblastes traités avec le Palmitate d'hydroxyproline” value (fibroblastes [2]; 48 heures, 1 µg / ml)?
A: 0,494 ± 0,012 densité optique

Q: And the “prolifération des fibroblastes traités avec le Palmitate d'hydroxyproline” value (fibroblastes [2]; 48 heures, 5 µg / ml)?
A: 0,513 ± 0,025 densité optique

Q: And the “prolifération des fibroblastes traités avec le Palmitate d'hydroxyproline” value (fibroblastes [2]; 48 heures, 10 µg / ml)?
A: 0,511 ± 0,020 densité optique

Q: What about the “prolifération des fibroblastes traités avec le Palmitate d'hydroxyproline” value (fibroblastes [2]; 48 heures, 20 µg / ml) of the same compound?
A: 0,471 ± 0,028 densité optique

Q: What about the “prolifération des fibroblastes traités avec le Palmitate d'hydroxyproline” value (fibroblastes [2]; 72 heures, 1 µg / ml) of the same compound?
A: 0,490 ± 0,019 densité optique

Q: What about the “prolifération des fibroblastes traités avec le Palmitate d'hydroxyproline” value (fibroblastes [2]; 72 heures, 5 µg / ml) of the same compound?
A: 0,500 ± 0,028 densité optique

Q: What about the “prolifération des fibroblastes traités avec le Palmitate d'hydroxyproline” value (fibroblastes [2]; 72 heures, 10 µg / ml) of the same compound?
A: 0,496 ± 0,017 densité optique

Q: What about the “dose à partir de laquelle une cytotoxicité est détectée” value (fibroblastes [2]; human, skin fibroblasts) of the same compound?
A: ≥ 20 µg/mL

Q: What about the “CONCLUSION à 4.10⁵cell.” value (fibroblastes [3]; 40 µg/ml) of the same compound?
A: inhibit. des collagènes.
